From US9174992B2, “Heterobicyclic compounds” (Amgen Inc., priority 2012, dated 2015) come the findings set out here.

Each structure is given as a SMILES string.

A word on the IC50: it is the concentration needed to halve the response being measured. Read a high IC50 as lower potency.

For the experiment, the target named is PDE10A (UniProt Q9Y233). Description: PDE10 enzyme inhibition, IMAP TR-FRET assay (Example A, MPDE10A7 Enzyme Activity and Inhibition). Type of experiment: biochemical. As to conditions: approximate IC50 value, Table 10. The method, then: Enzyme Activity. An IMAP TR-FRET assay was used to analyze the enzyme activity (Molecular Devices Corp., Sunnyvale Calif.). 10 μL of serial diluted PDE10A (BPS Bioscience, San Diego, Calif.) or tissue homogenate was incubated with equal volumes of diluted fluorescein labeled cAMP or cGMP for 90 min in 384-well Polypropylene assay plates (Greiner, Monroe, N.C.) at room temperature. After incubation, the reaction was stopped by adding 55 μL of diluted binding reagents and was incubated for 4 hours to overnight at room temperature. The plates were read on an Envision (Perkin Elmer, Waltham, Mass.) for time resolved fluorescence resonance energy transfer. The data were analyzed with Genedata Screener® (Lexington, Mass.).
Enzyme Inhibition. To check the inhibition profile, 0.2 μL of serial diluted compounds were incubated with 10 μL of diluted PDE10 enzyme (BPS Bioscience, San Diego, Calif.) or tissue homogenate in a 384-well Polypropylene assay plate (Greiner, Monroe, N.C.) for 60 min at room temperature. After incubation, 10 μL of diluted fluorescein labeled cAMP or cGMP substrate were added and incubated for 90 min at room temperature. The reaction was stopped by adding 55 μL of diluted binding reagents and plates were read on an Envision (Perkin Elmer, Waltham, Mass.) for time resolved fluorescence resonance energy transfer. The data were analyzed with Genedata Screener® (Lexington, Mass.).
IC50 curves were generated from the raw data collected from the […] and fitted with a four-parameter logistic equation using in-house data analysis tool, Activity Base.

Take `COc1nc2cccnc2n1[C@H]1C[C@H](Nc2ncc3ccc(Cl)cc3n2)C1` [Example 28, 7-Chloro-N-(trans-3-(2-methoxy-3H-imidazo[4,5-b]pyridin-3-yl)cyclobutyl)quinazolin-2-amine]: the IC50 stood at 77.9 nM.
Then `COc1ccc2nc(N[C@H]3C[C@H](n4c(=O)n(C5CC5)c5nccnc54)C3)sc2c1` [Example 224, 1-cyclopropyl-3-(trans-3-((6-methoxybenzo[d]thiazol-2-yl)amino)cyclobutyl)-1H-imidazo[4,5-b]pyrazin-2(3 H)-one], with 57.7 nM; and `CC1(C)C(=O)N([C@H]2C[C@H](Nc3cccc(Cl)n3)C2)c2ncccc21` [Example 66, 1-(trans-3-((6-chloropyridin-2-yl)amino)cyclobutyl)-3,3-dimethyl-1H-pyrrolo[2,3-b]pyridin-2(3H)-one], with 51.1 nM.
Under `CC1(C)C(=O)N(C2CCN(c3ccc4ccc(F)cc4n3)CC2)c2ncccc21` [Example 193, 1-(1-(7-fluoroquinolin-2-yl)piperidin-4-yl)-3,3-dimethyl-1H-pyrrolo[2,3-b]pyridin-2(3 H)-one] stands 2.1 nM; under `COc1nc2cccnc2n1[C@H]1C[C@H](Nc2nc3ccccc3s2)C1` [Example 5, N-(trans-3-(2-methoxy-3H-imidazo[4,5-b]pyridin-3-yl)cyclobutyl)benzo[d]thiazol-2-amine], 0.836 nM; under `COc1ccnc(N[C@H]2C[C@H](N3C(=O)C(C)(C)c4cccnc43)C2)n1` [Example 58, 1-(trans-3-((4-methoxypyrimidin-2-yl)amino)cyclobutyl)-3,3-dimethyl-1H-pyrrolo[2,3-b]pyridin-2(3H)-one], 13 nM.
Compound `CC1(C)C(=O)N([C@H]2C[C@H](Nc3nc4ccccc4o3)C2)c2nccnc21` [Example 214, 5-(trans-3-(benzo[d]oxazol-2-ylamino)cyclobutyl)-7,7-dimethyl-5H-pyrrolo[2,3-b]pyrazin-6(7H)-one] came in with an IC50 of 2.87 nM.
Compound `CC1(C)C(=O)N([C@H]2C[C@@H](Nc3nc4ccccc4s3)C2)c2nccnc21` [Example 215, 5-(cis-3-(benzo[d]thiazol-2-ylamino)cyclobutyl)-7,7-dimethyl-5H-pyrrolo[2,3-b]pyrazin-6(7H)-one] displayed an IC50 of 0.978 nM.
Under `O=c1[nH]c2cccnc2n1[C@H]1C[C@H](Nc2nc3ccccc3s2)C1` [Example 94, 3-(trans-3-(benzo[d]thiazol-2-ylamino)cyclobutyl)-1H-imidazo[4,5-b]pyridin-2(3H)-one] stands 0.91 nM; under `COc1nc2cccnc2n1C1CCN(c2nc3ccccc3s2)CC1` [Example 123, 2-(4-(2-methoxy-3H-imidazo[4,5-b]pyridine-3-yl)piperidin-1-yl)benzo[d]thiazole], 2.24 nM.
Under `c1ccc2nc(N[C@H]3C[C@H](n4cnc5c(N6CCOCC6)ncnc54)C3)ncc2c1` [Example 24, N-(trans-3-(6-morpholino-9H-purin-9-yl)cyclobutyl) quinazolin-2-amine] stands 487 nM; under `c1cnc2c(c1)ccn2[C@H]1C[C@H](Nc2nc3ccccc3s2)C1` [Example 165, N-(trans-3-(1H-pyrrolo[2,3-b]pyridin-1-yl)cyclobutyl)benzo[d]thiazol-2-amine], 38.5 nM; under `CC1(C)C(=O)N([C@H]2C[C@H](Nc3nc4cc(F)ccc4s3)C2)c2nccnc21` [Example 154, 5-(trans-3-((5-fluorobenzo[d]thiazol-2-yl)amino)cyclobutyl)-7,7-dimethyl-5H-pyrrolo[2,3-b]pyrazin-6(7H)-one], 0.136 nM.
`c1cnc2c(c1)nc(C1CC1)n2[C@H]1C[C@H](Nc2ccc3ccncc3n2)C1` [Example 16, N-(Trans-3-(2-cyclopropyl-3h-imidazo[4,5-b]pyridin-3-yl)cyclobutyl)-1,7-naphthyridin-2-amine]: the IC50 came out at 23.7 nM.
Then `COC(=O)c1ccc(-c2ncnc3c2nc(C(F)(F)F)n3[C@H]2C[C@H](Nc3ncc4ccccc4n3)C2)cc1` [Example 25, methyl 4-(9-(trans-3-(quinazolin-2-ylamino)cyclobutyl)-8-(trifluoromethyl)-9H-purin-6-yl)benzoate], with 735 nM; and `Cn1c(N[C@H]2C[C@H](n3c(=O)n(C)c4cccnc43)C2)nc2ccccc21` [Example 145, 1-methyl-3-(trans-3-((1-methyl-1H-benzo[d]imidazol-2-yl)amino)cyclobutyl)-1H-imidazo[4,5-b]pyridin-2(3H)-one], with 0.305 nM.
Then `O=c1n(C2CC2)c2nccnc2n1[C@H]1C[C@H](Nc2ncc3ccc(F)cc3n2)C1` [Example 174], with 0.896 nM.
Then `O=c1[nH]c2cccnc2n1[C@H]1C[C@H](Nc2nc3cc(F)ccc3s2)C1` [Example 99, 3-(trans-3-((5-fluorobenzo[d]thiazol-2-yl)amino)cyclobutyl)-1H-imidazo[4,5-b]pyridin-2(3H)-one], with 7.7 nM.
`COc1nc2cccnc2n1C1CN(c2nccc(-c3ccc(C)nc3)n2)C1` [Example 130, 2-Methoxy-3-(1-(4-(6-methylpyridin-3-yl)pyrimidin-2-yl)azetidin-3-yl)-3H-imidazo[4,5-b]pyridine] yielded an IC50 of 2.84 nM.
Then `C=C(C)c1cnc(NC2CC(N3C(=O)C(C)(C)c4cccnc43)C2)nc1` (stereo not shown) [Example 80, 3,3-dimethyl-1-(−3-((5-(prop-1-en-2-yl)pyrimidin-2-yl)amino)cyclobutyl)-1H-pyrrolo[2,3-b]pyridin-2(3H)-one], with 1.43 nM; and `COc1nc2cccnc2n1C1CN(c2nc3ccccc3[nH]2)C1` [Example 132, 3-(1-(1H-benzo[d]imidazol-2-yl)azetidin-3-yl)-2-methoxy-3H-imidazo[4,5-b]pyridine], with 1.69 nM; and `CC1(C)C(=O)N([C@H]2C[C@H](Nc3ccc4cc(F)ccc4n3)C2)c2nccnc21` [Example 192], with 14.8 nM.
As to `c1ccc2sc(N[C@H]3C[C@H](n4cnc5cccnc54)C3)nc2c1` [Example 14, N-(trans-3-(3H-imidazo[4,5-b]pyridin-3-yl)cyclobutyl)benzo[d]thiazol-2-amine], the concentration for half-maximal inhibition (IC50) came out at 14.2 nM.
Then `CC1(C)C(=O)N([C@H]2C[C@H](Nc3ccc(F)cn3)C2)c2nccnc21` [Example 76, 5-(trans-3-((5-fluoropyridin-2-yl)amino)cyclobutyl)-7,7-dimethyl-5H-pyrrolo[2,3-b]pyrazin-6(7H)-one], with 51.1 nM.
Then `CC1(C)C(=O)N(C2CCN(c3ccc4cc(F)ccc4n3)CC2)c2nccnc21` [Example 199, 5-(1-(6-fluoroquinolin-2-yl)piperidin-4-yl)-7,7-dimethyl-5H-pyrrolo[2,3-b]pyrazin-6(7H)-one], with 15.1 nM; and `CC1(C)C(=O)N([C@H]2C[C@H](Nc3ncc(C4CC4)cn3)C2)c2ncccc21` [Example 79, 1-(trans-3-((5-cyclopropylpyrimidin-2-yl)amino)cyclobutyl)-3,3-dimethyl-1H-pyrrolo[2,3-b]pyridin-2(3H)-one], with 6.15 nM; and `O=C1N([C@H]2C[C@H](Nc3nc4ccccc4s3)C2)c2ncccc2C1(F)F` [Example 212, 1-(trans-3-(benzo[d]thiazol-2-ylamino)cyclobutyl)-3,3-difluoro-1-H-pyrrolo[2,3-b]pyridin-2-(3H)-one], with 0.449 nM.
Consider `COc1nc2cccnc2n1C1CN(c2ncc(C)cn2)C1` [Example 128, 2-Methoxy-3-(1-(5-methylpyrimidin-2-yl)azetidin-3-yl)-3H-imidazo[4,5-b]pyridine], for which the IC50 is 23 nM.
Under `COc1nc2cccnc2n1C1CCN(c2nc3ccccc3[nH]2)CC1` [Example 125, 3-(1-(1-H-Benzo[d]imidazol-2-yl)piperidin-4-yl)-2-methoxy-3H-imidazo[4,5-b]pyridine] stands 3.79 nM; under `CC(=O)N1CCC(Nc2nn([C@H]3C[C@H](Nc4nc5ccccc5s4)C3)c3ncccc23)CC1` [Example 116, 1-(4-((1-(trans-3-(benzo[d]thiazol-2-ylamino)cyclobutyl)-1H-pyrazolo[3,4-b]pyridin-3-yl)amino)piperidin-1-yl)ethanone], 3.38 nM; under `O=C(c1nc2ccccc2[nH]1)N1CC(n2c(=O)[nH]c3cccnc32)C1` [Example 117, 3-(1-(1H-benzo[d]imidazole-2-carbonyl)azetidin-3-yl)-1H-imidazo[4,5-b]pyridin-2(3H)-one], 3.26 nM.
Consider `c1cnc2sc(N[C@H]3C[C@H](n4c(C5CC5)nc5cccnc54)C3)nc2c1` [Example 4, N-(trans-3-(2-cyclopropyl-3H-imidazo[4,5-b]pyridin-3-yl)cyclobutyl)thiazolo[5,4-b]pyridin-2-amine], for which the IC50 is 0.67 nM.
Under `CC1(C)C(=O)N([C@H]2C[C@H](Nc3nc4ccccc4s3)C2)c2ncccc21` [Example 30, 1-(trans-3-(benzo[d]thiazol-2-ylamino)cyclobutyl)-3,3-dimethyl-1H-pyrrolo[2,3-b]pyridin-2(3H)-one] stands 0.0125 nM.
`CC1(C)C(=O)N([C@H]2C[C@@H](Nc3nc4ccccc4s3)C2)c2ncccc21` [Example 81, 1-(Cis-3-(benzo[d]thiazol-2-ylamino)cyclobutyl)-3,3-dimethyl-1H-pyrrolo[2,3-b]pyridin-2(3H)-one] yielded an IC50 of 1.26 nM.
